Assay: Stability of rofecoxib by HPLC after storage for two weeks at 40° C. and 50° C.
Format: physicochemical
Method: The stability of rofecoxib was assessed by HPLC after storage for two weeks at 40° C. and for two weeks at 50° C.

Rofecoxib Concentration (Acetone, T = 0 weeks): 2.549 % w/w
Rofecoxib Concentration (Acetone, T = 2 weeks 40° C. storage): 2.549 % w/w
Rofecoxib Concentration (Acetone, T = 2 weeks 50° C. storage): 2.549 % w/w
Rofecoxib Concentration (Benzyl alcohol, T = 0 weeks): 1.447 % w/w
Rofecoxib Concentration (Benzyl alcohol, T = 2 weeks 40° C. storage): 1.474 % w/w
Rofecoxib Concentration (Benzyl alcohol, T = 2 weeks 50° C. storage): 1.470 % w/w
Rofecoxib Concentration (Diethylene glycol monoethyl ether, T = 0 weeks): 0.687 % w/w
Rofecoxib Concentration (Diethylene glycol monoethyl ether, T = 2 weeks 40° C. storage): 0.672 % w/w
Rofecoxib Concentration (Diethylene glycol monoethyl ether, T = 2 weeks 50° C. storage): 0.677 % w/w
Rofecoxib Concentration (Dimethyl isosorbide, T = 0 weeks): 2.641 % w/w
Rofecoxib Concentration (Dimethyl isosorbide, T = 2 weeks 40° C. storage): 2.515 % w/w
Rofecoxib Concentration (Dimethyl isosorbide, T = 2 weeks 50° C. storage): 2.511 % w/w
Rofecoxib Concentration (Ethyl acetate, T = 0 weeks): 0.465 % w/w
Rofecoxib Concentration (Ethyl acetate, T = 2 weeks 40° C. storage): 0.479 % w/w
Rofecoxib Concentration (Ethyl acetate, T = 2 weeks 50° C. storage): 0.476 % w/w
Rofecoxib Concentration (N-methyl-2-pyrrolidone, T = 0 weeks): 5.046 % w/w
Rofecoxib Concentration (N-methyl-2-pyrrolidone, T = 2 weeks 40° C. storage): 5.057 % w/w
Rofecoxib Concentration (N-methyl-2-pyrrolidone, T = 2 weeks 50° C. storage): 5.055 % w/w
Rofecoxib Concentration (PEG 400, T = 0 weeks): 1.013 % w/w
Rofecoxib Concentration (PEG 400, T = 2 weeks 40° C. storage): 0.987 % w/w
Rofecoxib Concentration (PEG 400, T = 2 weeks 50° C. storage): 0.993 % w/w
Rofecoxib Concentration (Propylene Carbonate, T = 0 weeks): 3.471 % w/w
Rofecoxib Concentration (Propylene Carbonate, T = 2 weeks 40° C. storage): 3.456 % w/w
Rofecoxib Concentration (Propylene Carbonate, T = 2 weeks 50° C. storage): 3.463 % w/w
Rofecoxib Concentration (Propylene Glycol Diacetate, T = 0 weeks): 0.519 % w/w
Rofecoxib Concentration (Propylene Glycol Diacetate, T = 2 weeks 40° C. storage): 0.527 % w/w
Rofecoxib Concentration (Propylene Glycol Diacetate, T = 2 weeks 50° C. storage): 0.520 % w/w
solubility after storage (two weeks at 40° C. and 50° C., in the solvents in Table 12): remained soluble
SMILES: CS(=O)(=O)c1ccc(C2=C(c3ccccc3)C(=O)OC2)cc1 [Rofecoxib]
